Patent publication US20080214542A1, “Arylpiperazine Derivatives and their Use as Selective Dopamine D3 Receptor Ligands” (BIOPROJET, priority 2004, published 2008)
Structures can show the parent of a compound that is named as a salt. Where two headings read alike, the source gives them in different places.

Target: human dopamine D3 receptor (hD3) (Homo sapiens, UniProt P35462)
Assay: Binding of [3H]spiperone to membranes of CHO cells transfected with the human dopamine D3 receptor
Experimental: Biological Results: Determination of the Affinity of the Compounds for the Human Dopamine D3 Receptor
Binding of [^3H]spiperone:
CHO cells were transfected by the gene coding for the human dopamine D3 receptor (hD3). The binding of [^3H]spiperone (0.5 to 2 nM) takes place in the presence of 5 to 10 μg of membranous proteins in a medium containing 120 mM NaCl, 5 mM KCl, and 50 mM Tris HCL pH 7.4; an incubation of 60 minutes at ambient temperature is necessary. The non-specific binding is estimated in the presence of 5 μM of haloperidol. The non-transfected cells are devoid of any binding activity.

[1] = binding of [3H]spiperone (0.5 to 2 nM), hD3-transfected CHO cell membranes, 60 minutes at ambient temperature, read-out: hD3 Ki

human dopamine D3 receptor (hD3), sequence (P35462 whole entry): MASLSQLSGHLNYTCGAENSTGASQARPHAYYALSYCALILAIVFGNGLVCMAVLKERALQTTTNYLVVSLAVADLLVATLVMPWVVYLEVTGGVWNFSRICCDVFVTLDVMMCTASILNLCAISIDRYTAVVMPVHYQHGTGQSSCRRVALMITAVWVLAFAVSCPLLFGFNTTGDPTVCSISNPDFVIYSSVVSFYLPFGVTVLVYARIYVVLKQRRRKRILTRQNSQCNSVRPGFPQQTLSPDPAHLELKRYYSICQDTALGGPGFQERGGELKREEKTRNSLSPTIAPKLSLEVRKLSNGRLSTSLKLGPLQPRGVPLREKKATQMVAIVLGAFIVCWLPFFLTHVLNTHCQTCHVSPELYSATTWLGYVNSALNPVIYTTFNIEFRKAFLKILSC

SMILES	Ki [1]	Ki (comparative example, affinity for the dopamine D3 receptor, read-out: Ki)
O=C(CCCCCN1CC=C(c2cccc(C(F)(F)F)c2)CC1)N1Cc2ccccc2C1 [Example 50, 1-isoindolin-2-yl-6-[4-(3-trifluoromethylphenyl)-3,6-dihydro-2H-pyridin-1-yl]hexan-1-one]	0.93 nM	
O=C(CCCCCN1CCN(c2cccc(F)c2)CC1)N1Cc2ccccc2C1 [reference compound]		321 nM
O=C(CCCCCN1CCC(c2cccc(C(F)(F)F)c2)CC1)N1Cc2ccccc2C1 [Example 51, 1-isoindolin-2-yl-6-[4-(3-trifluoromethyl-phenyl)-piperidin-1-yl]hexan-1-one]	19.7 nM	
O=C(CCCCCN1CCN(c2cccc3c2CCCC3)CC1)N1Cc2ccccc2C1 [Example 38, 1-isoindolin-2-yl-6-[4-(5,6,7,8-tetrahydro-naphthalen-1-yl)piperazin-1-yl]hexan-1-one]	0.84 nM	

Other lines, results leading:

Ki [1]	Ki (comparative example, affinity for the dopamine D3 receptor, read-out: Ki)	SMILES
1.17 nM		O=C(CCCCCN1CCN(c2cccc(C(F)(F)F)c2)CC1)N1Cc2cc3c(cc2C1)OCO3 [Example 10, 1-(6,7-dihydro-5H-[1,3]dioxolo[4,5-f]isoindol-6-yl)-6-[4-(3-trifluoromethylphenyl)piperazin-1-yl]hexan-1-one]
2.6 nM		N#Cc1ccc2c(c1)CN(C(=O)CCCCCN1CCN(c3cccc(C(F)(F)F)c3)CC1)C2 [Example 3, 1-(5-cyanoisoindolin-2-yl)-6-[4-(3-trifluoromethylphenyl)piperazin-1-yl]-hexan-1-one hydrochloride]
1.05 nM		O=C(CCCCCN1CCN(c2cccc(C(F)(F)F)c2)CC1)N1Cc2ccc(F)cc2C1 [Example 7, 1-(5-fluoroisoindolin-2-yl)-6-[4-(3-trifluoromethylphenyl)piperazin-1-yl]hexan-1-one]
0.85 nM		COC(=O)c1ccc2c(c1)CN(C(=O)CCCCCN1CCN(c3cccc(C(F)(F)F)c3)CC1)C2 [Example 12, 1-(5-methoxycarbonylisoindolin-2-yl)-6-[4-(3-trifluoromethylphenyl)piperazin-1-yl]hexan-1-one hydrochloride]
1.21 nM		O=C(CCCCCN1CCN(c2cccc(C(F)(F)F)c2)CC1)N1Cc2ccc(OCCCN3CCCCC3)cc2C1 [Example 24, 1-[5-(3-piperidinopropoxy)isoindolin-2-yl]-6-[4-(3-trifluoromethylphenyl)piperazin-1-yl]hexan-1-one]
0.9 nM		COc1ccc2c(c1)CN(C(=O)CCCCCN1CCN(c3cccc(C(F)(F)F)c3)CC1)C2 [Example 1, 1-(5-methoxyisoindolin-2-yl)-6-[4-(3-trifluoromethylphenyl)piperazin-1-yl]hexan-1-one]
